What all share (assay type): biochemical
Assay [1] addresses T1, human macrophage elastase (HME/hMMP-12) (Homo sapiens, UniProt P39900).
T1 construct: 0.5 nM HME; purchased R&D Systems 917-MP
Briefly: In vitro HME inhibition test (standard or high-sensitivity). Particulars: in some cases mean values. In a few lines: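 Fluorogenic assay: 0.5 nM autoactivated HME with 5 µM Mca-Pro-Leu-Gly-Leu-Glu-Glu-Ala-Dap(Dnp)-NH2 in HEPES pH 7.4 buffer (NaCl, CaCl2, ZnCl2, EDTA, Brij), 2 h at 37 °C; ex 323/em 393 nm. IC50 from fluorescence versus concentration. High-sensitivity format: ~0.05 nM enzyme, ~16 h incubation.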

In assay [2] the target is T2, MMP-3 (Homo sapiens, UniProt P08254).
T2 construct: purchased R&D Systems 513-MP
Kind of assay: In vitro MMP-3 inhibition test. An excerpt: (§1) The MMP-mediated amidolytic cleavage of a suitable peptide substrate leads to an increase in fluorescent light here too. The signal intensity of the fluorescent light is directly proportional to the enzyme activity. The active concentration of a test compound at which half the enzyme is inhibited (50% signal intensity of the fluorescent light) is reported as the IC50 value.
Recombinant MMP-3 (from R&D Systems, 513-MP) is chemically activated in accordance with the manufacturer's instructions using APMA. 1 μl of the test compound to be analysed (as a solution in DMSO, suitable concentrations, for example, 1 nM to 30 μM) is pipetted into 24 μl of activated enzyme (final concentration, for example, 2 nM) in reaction buffer (50 mM Tris/HCl pH 7.5, 10 mM CaCl2, 150 mM NaCl, 0.05% Brij®-35) in a white 384-hole microtiter plate (MTP). The enzymatic reaction is started by adding the intramolecularly quenched Mca-Arg-Pro-Lys-Pro-Val-Glu-Nval-Trp-Arg-Lys(Dnp)-NH2 substrate (final concentration, for example, 10 μM; R&D Systems, ES-002), so as to result in a total test volume of 50 The course of the MMP-3 reaction is measured by measuring the fluorescence intensity (excitation 320 nm, emission 410 nm) over a suitable period of time (for example over 120 min at a temperature of 32° C.).

Assay [3] deals with T3, MMP-8 (Homo sapiens, UniProt P22894).
T3 construct: purchased R&D Systems 908-MP
Briefly: In vitro MMP-8 inhibition test.
Text: as §1
Recombinant MMP-8 (from R&D Systems, 908-MP) is chemically activated in accordance with the manufacturer's instructions using APMA. 1 μl of the test compound to be analysed (as a solution in DMSO, suitable concentrations, for example, 1 nM to 30 μM) is pipetted into 24 μl of activated enzyme (final concentration, for example, 0.5 nM) in reaction buffer (50 mM Tris/HCl pH 7.5, 10 mM CaCl2, 150 mM NaCl, 0.05% Brij®-35) in a white 384-hole microtiter plate (MTP). The enzymatic reaction is started by adding the intramolecularly quenched Mca-Pro-Leu-Gly-Leu-Dpa(Dnp)-Ala-Arg-NH2 substrate (final concentration, for example, 10 μM; R&D Systems, ES-001), so as to result in a total test volume of 50 μl. The course of the MMP-8 reaction is measured by measuring the fluorescence intensity (excitation 320 nm, emission 410 nm) over a suitable period of time (for example over 120 min at a temperature of 32° C.).

In assay [4] the target is T4, MMP-16 (Homo sapiens, UniProt P51512).
T4 construct: purchased R&D Systems 1785-MP
Briefly: In vitro MMP-16 inhibition test.
Text: as §1
Recombinant MMP-16 (from R&D Systems, 1785-MP) is enzymatically activated in accordance with the manufacturer's instructions using recombinant furin (from R&D Systems, 1503-SE). 1 μl of the test compound to be analysed (as a solution in DMSO, suitable concentrations e.g. 1 nM to 30 μM) is pipetted into 24 μl of activated enzyme (final concentration e.g. 1 nM) in reaction buffer (50 mM Tris/HCl pH 7.5, 10 mM CaCl2, 150 mM NaCl, 0.05% Brij®-35) in a white 384-hole microtiter plate (MTP). The enzymatic reaction is started by adding the intramolecularly quenched Mca-Lys-Pro-Leu-Gly-Leu-Dpa(Dnp)-Ala-Arg-NH2 substrate (final concentration, for example, 5 μM; R&D Systems, ES-010), so as to result in a total test volume of 50 The course of the MMP-16 reaction is measured by measuring the fluorescence intensity (excitation 320 nm, emission 410 nm) over a suitable period of time (for example over 120 min at a temperature of 32° C.).

Results on 13 compounds are retold here after patent US20170022171A1, “2,5-DISUBSTITUTED CYCLOPENTANECARBOXYLIC ACIDS AND THEIR USE” (Bayer Pharma Aktiengesellschaft, priority 2014, published 2017).

T1 sequence (P39900 106-470): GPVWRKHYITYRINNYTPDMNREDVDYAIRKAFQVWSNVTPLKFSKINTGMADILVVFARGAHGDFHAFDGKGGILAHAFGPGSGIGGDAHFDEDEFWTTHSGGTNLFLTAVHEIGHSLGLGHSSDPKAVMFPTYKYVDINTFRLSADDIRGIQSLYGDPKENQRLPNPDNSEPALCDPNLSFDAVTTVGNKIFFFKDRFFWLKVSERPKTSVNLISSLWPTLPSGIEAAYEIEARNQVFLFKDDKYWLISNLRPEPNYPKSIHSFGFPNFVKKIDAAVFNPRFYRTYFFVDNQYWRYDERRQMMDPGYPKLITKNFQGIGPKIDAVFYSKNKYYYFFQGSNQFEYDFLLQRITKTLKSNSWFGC
T2 sequence (P08254 100-477): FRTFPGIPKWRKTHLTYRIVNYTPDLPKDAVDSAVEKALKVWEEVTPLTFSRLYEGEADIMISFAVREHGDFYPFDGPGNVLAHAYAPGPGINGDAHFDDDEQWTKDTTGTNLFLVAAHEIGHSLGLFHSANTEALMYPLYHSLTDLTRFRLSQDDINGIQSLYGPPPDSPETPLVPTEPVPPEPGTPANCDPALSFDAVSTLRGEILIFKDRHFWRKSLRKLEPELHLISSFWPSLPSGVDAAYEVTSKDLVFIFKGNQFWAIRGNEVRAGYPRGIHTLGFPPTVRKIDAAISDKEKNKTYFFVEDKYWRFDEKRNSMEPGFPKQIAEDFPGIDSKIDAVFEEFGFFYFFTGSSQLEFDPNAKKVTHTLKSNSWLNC
T3 sequence (P22894 101-467): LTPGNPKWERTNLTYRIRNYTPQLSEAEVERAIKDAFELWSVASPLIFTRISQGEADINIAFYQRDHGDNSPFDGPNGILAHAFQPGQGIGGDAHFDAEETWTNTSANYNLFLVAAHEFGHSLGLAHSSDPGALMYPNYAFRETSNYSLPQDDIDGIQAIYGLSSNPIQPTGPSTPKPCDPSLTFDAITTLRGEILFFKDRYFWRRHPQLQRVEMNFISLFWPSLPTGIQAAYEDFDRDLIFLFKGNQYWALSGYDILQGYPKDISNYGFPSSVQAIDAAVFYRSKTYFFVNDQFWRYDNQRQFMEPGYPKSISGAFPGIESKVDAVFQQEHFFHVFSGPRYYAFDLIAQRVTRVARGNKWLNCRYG
T4 sequence (P51512 120-564 limits assumed): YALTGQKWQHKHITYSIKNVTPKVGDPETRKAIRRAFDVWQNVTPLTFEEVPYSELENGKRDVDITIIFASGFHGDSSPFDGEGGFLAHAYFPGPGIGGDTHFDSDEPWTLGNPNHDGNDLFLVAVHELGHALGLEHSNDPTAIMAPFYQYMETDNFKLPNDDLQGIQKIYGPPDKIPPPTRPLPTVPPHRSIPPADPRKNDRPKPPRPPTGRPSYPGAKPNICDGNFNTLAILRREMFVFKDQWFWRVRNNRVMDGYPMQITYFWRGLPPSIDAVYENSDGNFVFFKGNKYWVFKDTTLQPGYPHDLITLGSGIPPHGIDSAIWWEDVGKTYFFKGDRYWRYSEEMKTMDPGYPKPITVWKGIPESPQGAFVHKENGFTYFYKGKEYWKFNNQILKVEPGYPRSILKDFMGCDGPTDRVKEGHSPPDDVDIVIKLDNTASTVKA

`O=C(O)[C@H]1[C@H](Cn2nnc3ccccc3c2=O)CC[C@@H]1C(=O)c1ccc(OCC2CCCC2)cc1` (racemic) [Example 4, (+/−)-(1RS,2RS,5SR)-2-[4-(Cyclopentylmethoxy)benzoyl]-5-[(4-oxo-1,2,3-benzotriazin-3(4H)-yl)methyl]cyclopentanecarboxylic acid]: the IC50 in assay [1] amounted to 0.049 nM; in assay [2], 1100 nM; in assay [3] it was 14 nM; in assay [4], 170 nM.

For `O=C(O)[C@H]1[C@H](Cn2nnc3ccc(C(F)(F)F)cc3c2=O)CC[C@@H]1C(=O)c1ccc(SCc2ccc(Cl)c(Cl)c2)cc1` (racemic) [Example 79, (+/−)-(1RS,2RS,5SR)-2-{4-[(3,4-Dichlorobenzyl)sulphanyl]benzoyl}-5-{[4-oxo-6-(trifluoromethyl)-1,2,3-benzotriazin-3(4H)-yl]methyl}cyclopentanecarboxylic acid], the IC50 in assay [1] is 0.25 nM; in assay [2], 800 nM; in assay [3], 280 nM; in assay [4], > 40000 nM.

Take `CCCCCSc1ccc(C(=O)[C@H]2CC[C@@H](Cn3nnc4ccc(C(F)(F)F)cc4c3=O)[C@@H]2C(=O)O)cc1` (racemic) [Example 88, (+/−)-(1RS,2SR,5RS)-2-{[4-Oxo-6-(trifluoromethyl)-1,2,3-benzotriazin-3(4H)-yl]methyl}-5-[4-(pentylsulphanyl)benzoyl]cyclopentanecarboxylic acid]: the IC50 in assay [1] was 0.023 nM; in assay [2], 96 nM; in assay [3], 6.2 nM; in assay [4], 670 nM.

Regarding `O=C(O)[C@@H]1[C@@H](Cn2nnc3ccc(C(F)(F)F)cc3c2=O)CC[C@H]1C(=O)c1ccc(SCc2ccccc2)cc1` (single isomer, unassigned) [Example 75, (+)-(1RS,2RS,5SR)-2-[4-(Benzylsulphanyl)benzoyl]-5-{[4-oxo-6-(trifluoromethyl)-1,2,3-benzotriazin-3(4H)-yl]methyl}cyclopentanecarboxylic acid], the IC50 worked out at 0.051 nM in assay [1], 170 nM in assay [2], 74 nM in assay [3] and 3600 nM in assay [4].

For `Cc1ccc2nnn(C[C@H]3CC[C@@H](C(=O)c4ccc(OCC5CCCCC5)cc4)[C@@H]3C(=O)O)c(=O)c2c1` (single isomer, unassigned) [Example 117, (+)-(1RS,2RS,5SR)-2-[4-(Cyclohexylmethoxy)benzoyl]-5-[(6-methyl-4-oxo-1,2,3-benzotriazin-3(4H)-yl)methyl]cyclopentanecarboxylic acid], the IC50 in assay [1] stood at 0.014 nM; in assay [2] it was 110 nM; in assay [3], 4 nM; in assay [4], 260 nM.

With `O=C(O)[C@@H]1[C@@H](Cn2nnc3ccc(C(F)(F)F)cc3c2=O)CC[C@H]1C(=O)c1ccc(OCC2CCCC2)cc1` (single isomer, unassigned) [Example 44, (+)-(1RS,2RS,5SR)-2-[4-(Cyclopentylmethoxy)benzoyl]-5-{[4-oxo-6-(trifluoromethyl)-1,2,3-benzotriazin-3(4H)-yl]methyl}cyclopentanecarboxylic acid], the IC50 was determined as 0.024 nM in assay [1], 140 nM in assay [2], 1.1 nM in assay [3] and 100 nM in assay [4].

Take “(+)-(1RS,2SR,5RS)-2-{[4-Oxo-6-(trifluoromethyl)-1,2,3-benzotriazin-3(4H)-yl]methyl}-5-{4-[(2-phenylethy)sulphanyl]benzoyl}cyclopentanecarboxylic acid [Example 83]”: the IC50 is 0.11 nM in assay [1], 450 nM in assay [2], 260 nM in assay [3] and > 40000 nM in assay [4].

For the compound `O=C(O)[C@@H]1[C@@H](Cn2nnc3ccc(C(F)(F)F)cc3c2=O)CC[C@H]1C(=O)c1ccc(OCc2ccc(F)cc2)cc1` (single isomer, unassigned) [Example 13, (+)-(1RS,2RS,5SR)-2-{4-[(4-Fluorobenzyl)oxy]benzoyl}-5-{[4-oxo-6-(trifluoromethyl)-1,2,3-benzotriazin-3(4H)-yl]methyl}cyclopentanecarboxylic acid], the IC50 in assay [1] stood at 0.018 nM; in assay [2] it was 62 nM; in assay [3], 0.88 nM; in assay [4], 170 nM.

As to `O=C(O)[C@@H]1[C@@H](Cn2nnc3ccc(C(F)(F)F)cc3c2=O)CC[C@H]1C(=O)c1ccc(SCc2ccc(Cl)c(Cl)c2)cc1` (single isomer, unassigned) [Example 80, (+)-(1RS,2RS,5SR)-2-{4-[(3,4-Dichlorobenzyl)sulphanyl]benzoyl}-5-{[4-oxo-6-(trifluoromethyl)-1,2,3-benzotriazin-3(4H)-yl]methyl}cyclopentanecarboxylic acid], the IC50 in assay [1] worked out at 0.079 nM; in assay [2] it was 150 nM; in assay [3], 52 nM; in assay [4], 5500 nM.

As for `Cc1cccc(COc2ccc(C(=O)[C@H]3CC[C@@H](Cn4nnc5ccc(C)cc5c4=O)[C@@H]3C(=O)O)cc2)c1` (racemic) [Example 97, (+/−)-(1RS,2RS,5SR)-2-{4-[(3-Methylbenzyl)oxy]benzoyl}-5-[(6-methyl-4-oxo-1,2,3-benzotriazin-3(4H)-yl)methyl]cyclopentanecarboxylic acid], the IC50 is 0.4 nM in assay [1], 2000 nM in assay [2], 310 nM in assay [3] and 4500 nM in assay [4].

Regarding `CCCCCOc1ccc(C(=O)[C@H]2CC[C@@H](Cn3nnc4ccc(C)cc4c3=O)[C@@H]2C(=O)O)cc1` (racemic) [Example 123, (+/−)-(1RS,2SR,5RS)-2-[(6-Methyl-4-oxo-1,2,3-benzotriazin-3(4H)-yl)methyl]-5-[4-(pentyloxy)benzoyl]cyclopentanecarboxylic acid], the IC50 in assay [1] worked out at 0.088 nM; in assay [2] it was 540 nM; in assay [3] it was 11 nM; in assay [4] it was 11000 nM.

Take `O=C(O)[C@@H]1[C@@H](Cn2nnc3ccc(C(F)(F)F)cc3c2=O)CC[C@H]1C(=O)c1ccc(OCc2cccc(C(F)(F)F)c2)cc1` (single isomer, unassigned) [Example 19, (+)-(1RS,2SR,5RS)-2-{[4-Oxo-6-(trifluoromethyl)-1,2,3-benzotriazin-3(4H)-yl]methyl}-5-(4-{[3-(trifluoromethyl)benzyl]oxy}benzoyl)cyclopentanecarboxylic acid]: the IC50 in assay [1] was found to be 0.027 nM; in assay [2], 3000 nM; in assay [3], 130 nM; in assay [4], 5400 nM.

Regarding `O=C(O)[C@@H]1[C@@H](Cn2nnc3ccc(C(F)(F)F)cc3c2=O)CC[C@H]1C(=O)c1ccc(OCc2cccc(Cl)c2)cc1` (single isomer, unassigned) [Example 23, (+)-(1RS,2RS,5SR)-2-{4-[(3-Chlorobenzyl)oxy]benzoyl}-5-{[4-oxo-6-(trifluoromethyl)-1,2,3-benzotriazin-3(4H)-yl]methyl}cyclopentanecarboxylic acid], the IC50 turned out to be 0.032 nM in assay [1], 540 nM in assay [2], 56 nM in assay [3] and 2200 nM in assay [4].
